Assay results as given in PMC11997881, “Comprehensive Characterization of Bruton’s Tyrosine Kinase Inhibitor Specificity, Potency, and Biological Effects: Insights into Covalent and Noncovalent Mechanistic Signatures” (ACS Pharmacology & Translational Science, 2025).
Entries after “also recorded” stand apart in the source; their conditions may differ. Read-outs that look alike come from different tables or passages of the source.

Assays:
[1] = molecular target: T1, BTK (Homo sapiens, UniProt Q06187); assay: scanMAX binding POC, BTK; conditions: 1 μM; zero POC = competition comparable to positive control
T1 construct: host or cells: transiently transfected HEK293 cells
Excerpt: (§1) Comprehensive Characterization of Bruton’s Tyrosine Kinase Inhibitor Specificity, Potency, and
(§2) Biological Effects: Insights into Covalent and Non-Covalent Mechanistic Signatures
(§3) Antonia C. Darragh1, Andrew M. Hanna1, Justin H. Lipner2, Alastair J. King2, Nicole B. Servant1, Mirza Jahic1*
(§4) *To whom correspondence should be addressed: Mirza Jahic, e-mail address: Mirza.Jahic@discovery.eurofinsus.com
(§5) Supporting Table S1. Comparison of BTK inhibitor specificity to TEC family members. TEC family members are
(§6) Burton’s tyrosine kinase (BTK), tyrosine kinase expressed in hepatocellular carcinoma (TEC), bone marrow-
(§7) expressed kinase (BMX/ETK), and T cell-expressed kinase (TXK/RLK), and interleukin-2-inducible T cell kinase
(§8) A zero POC signifies that the compound

[2] = molecular target: BTK; conditions: wild-type BTK; average of literature values; read-out: average published Kd for BTK; cited from earlier work
[3] = molecular target: T2, wild-type BTK (Homo sapiens, UniProt Q06187); assay: KdELECT competition binding, wild-type BTK
T2 construct: made in house; host or cells: transiently transfected HEK293 cells (unpurified extract)
Method: Using Eurofins Discovery’s KdELECT Kinase Assay Panel (San Diego, CA), we measured the ATP-independent in vitro binding affinity of the aforementioned BTK inhibitors to wild-type BTK.
(§9) Protein extracts were harvested in M-PER extraction buffer (Pierce Biotechnology, Rockford, IL) supplemented with 150 mM NaCl, 10 mM Dithiothreitol (DTT), Protease Inhibitor Cocktail Complete (Roche Diagnostics GmbH, Mannheim, Germany), and Phosphatase Inhibitor Cocktail Set II (Merck KGaA, Darmstadt, Germany) following the manufacturer’s guidelines. The fusion protein was labeled with a DNA tag containing the NFκB binding site fused to an amplicon for qPCR readout, which was added directly to the expression extract.
(§10) Kds were calculated using a standard dose–response curve fitting of the data using the Hill equation: Response = Background + (Signal – Background)/(1 + (Kd ^Hill Slope/Dose^Hill Slope). The Hill Slope was set to −1. A nonlinear least-square fit using the Levenberg–Marquardt algorithm was employed for curve fitting.

[4] = molecular target: T3, BMX (Homo sapiens, UniProt P51813); assay: scanMAX binding POC, BMX; conditions: 1 μM
T3 sequence (P51813 1-675): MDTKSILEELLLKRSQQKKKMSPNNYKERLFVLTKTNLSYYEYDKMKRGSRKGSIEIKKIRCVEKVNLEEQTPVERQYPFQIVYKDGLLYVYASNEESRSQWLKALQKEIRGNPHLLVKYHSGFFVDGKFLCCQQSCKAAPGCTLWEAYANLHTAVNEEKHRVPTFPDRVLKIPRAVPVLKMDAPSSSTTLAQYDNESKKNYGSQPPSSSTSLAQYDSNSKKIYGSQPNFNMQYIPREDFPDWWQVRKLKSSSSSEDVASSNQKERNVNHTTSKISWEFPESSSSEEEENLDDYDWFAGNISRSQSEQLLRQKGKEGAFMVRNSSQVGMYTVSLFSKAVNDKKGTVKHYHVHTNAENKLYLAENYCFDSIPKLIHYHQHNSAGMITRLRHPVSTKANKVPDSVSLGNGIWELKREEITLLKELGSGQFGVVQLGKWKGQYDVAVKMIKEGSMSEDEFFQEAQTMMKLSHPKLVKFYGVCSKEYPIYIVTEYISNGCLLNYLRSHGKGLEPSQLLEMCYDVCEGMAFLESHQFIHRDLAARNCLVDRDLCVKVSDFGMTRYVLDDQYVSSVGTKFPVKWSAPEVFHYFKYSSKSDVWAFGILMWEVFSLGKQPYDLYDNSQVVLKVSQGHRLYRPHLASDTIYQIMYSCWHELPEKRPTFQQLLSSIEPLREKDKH
Excerpt: as §1, §2, §3, §4, §5, §6, §7, §8

[5] = tested on: 468 kinases/kinase domains; conditions: scanMAX at 1 μM; for selectivity: category by number of off-targets
Method: The compounds were diluted directly into the assays such that the final concentration of DMSO was 0.9%. No enzyme purification steps were performed on the protein extracts before adding them to the reaction mixture, and the protein extracts were diluted 10,000-fold in the final reaction mixture (the final DNA-tagged enzyme concentration was less than 0.1 nM). Binding assay mixtures were incubated at 25 °C with shaking for 1 h. […] The concentration of wild-type or mutant BTK in the eluates was then determined using quantitative PCR.

[6] = molecular target: T4, BTK C481S (Homo sapiens, UniProt Q06187, C481S); assay: KdELECT competition binding, mutant BTK C481S
T4 construct: made in house; host or cells: transiently transfected HEK293 cells (unpurified extract)
Method: as §9, §10

[7] = molecular target: ERBB3 (Homo sapiens, UniProt P21860); assay: scanMAX binding POC, ERBB3; conditions: 1 μM
[8] = molecular target: JNK3 (MAPK10) (Homo sapiens, UniProt P53779); assay: scanMAX binding POC, JNK3; conditions: 1 μM
Method: (§11) The compounds were diluted directly into the assays such that the final concentration of DMSO was 0.9%. No enzyme purification steps were performed on the protein extracts before adding them to the reaction mixture, and the protein extracts were diluted 10,000-fold in the final reaction mixture (the final DNA-tagged enzyme concentration was less than 0.1 nM). Binding assay mixtures were incubated at 25 °C with shaking for 1 h. […] The concentration of wild-type or mutant BTK in the eluates was then determined using quantitative PCR. […] Each assay’s affinity ligand concentration on the magnetic beads has been optimized to ensure that the true thermodynamic Kd values for competitor molecules were measured, as described in detail previously99.
(§12) Comparison of BTK inhibitor specificity to c-Jun N-terminal kinases (JNK1-3/MAPKP8-10).
(§13) a The percent of control (POC) is the percent of kinase that was competed off its control ligand relative to the positive and negative controls at the screening concentration56. A zero POC signifies that the compound

[9] = molecular target: JNK1 (MAPK8) (Homo sapiens, UniProt P45983); assay: scanMAX binding POC, JNK1; conditions: 1 μM
Method: as §11, §12, §13

[10] = tested on: 12 human primary cell systems; assay: BioMAP Diversity PLUS Panel; assay type: cell-based; conditions: for number of biological effects (biomarkers modulated) / number of effects in a non-B cell (non-BT) model: 1 μM; for immunomodulatory activities / tissue remodeling activities / inflammation-related activities / hemostasis/angiogenesis-related activities: biomarker level relative to vehicle control: ↑ increase, ↓ decrease; for inflammation-related activities: ↓↑ both; for hemostasis/angiogenesis-related activities: TF in the 3C model; for antiproliferative effects: cell types affected, concentrations (nM) in brackets; for detectable cytotoxicity: concentrations (nM): ibrutinib 3300, 1100, 370, 120, pirtobrutinib and fenebrutinib 1000, 330, 110, 37, spebrutinib 370, 120, 41, 14
Method: BioMAP Diversity PLUS Panel (Eurofins Discovery, St. Charles, MO) is composed of 12 human primary cell cultures or cocultures. The systems and stimuli have been described previously. Adherent cells were added to 96-well plates, allowed to reach confluence, and incubated for 1 h with the indicated BTK inhibitor or assay control, all dissolved in 0.1% DMSO. The cells were then stimulated with cytokines, agonists, or growth factors and cultured for a minimum of 24 h at 37 °C in 5% CO2. Assay controls included DMSO-only (vehicle control), nonstimulated conditions (negative control), and a positive control test agent (colchicine at 1 μM).
Cell proliferation and viability were measured using 0.1% sulforhodamine B (SRB, Sigma–Aldrich) after fixation with 10% TCA, and reading wells at 560 nm for adherent cells, and using alamarBlue reduction (Bio-Rad) for suspension cells. These biomarkers were previously described by Shah and colleagues.
For each biomarker, the value obtained from the BTK inhibitor-treated samples was divided by the average of 8 DMSO-only controls from the same plate, yielding a ratio that was then transformed to the log10 scale. […] For cytotoxicity, we considered a decrease in the SRB readout greater than 50% (<−0.3 on the log10 scale) significant and excluded from the analysis the corresponding concentrations. The acceptance criteria and quality assurance of the BioMAP experiments have been previously described.

[11] = tested on: BTK C481S in TMD8 cells; conditions: IC50 measured in TMD8 cells (not in vitro); read-out: average published IC50 for BTK C481S; cited from earlier work
[12] = ATP-independent in vitro binding, 25 °C, read-out: Kd for wild-type BTK
[13] = category by Kd for wild-type BTK, read-out: potency for BTK
[14] = wild-type BTK, average of N replicates, each in technical duplicate, read-out: average in-house Kd for BTK
[15] = ATP-independent in vitro binding, 25 °C, read-out: Kd for BTK C481S
[16] = N = 1, technical duplicate, read-out: average in-house Kd for BTK C481S
[17] = category by Kd for BTK C481S, read-out: potency for BTK C481S

T2 sequence (Q06187 whole entry): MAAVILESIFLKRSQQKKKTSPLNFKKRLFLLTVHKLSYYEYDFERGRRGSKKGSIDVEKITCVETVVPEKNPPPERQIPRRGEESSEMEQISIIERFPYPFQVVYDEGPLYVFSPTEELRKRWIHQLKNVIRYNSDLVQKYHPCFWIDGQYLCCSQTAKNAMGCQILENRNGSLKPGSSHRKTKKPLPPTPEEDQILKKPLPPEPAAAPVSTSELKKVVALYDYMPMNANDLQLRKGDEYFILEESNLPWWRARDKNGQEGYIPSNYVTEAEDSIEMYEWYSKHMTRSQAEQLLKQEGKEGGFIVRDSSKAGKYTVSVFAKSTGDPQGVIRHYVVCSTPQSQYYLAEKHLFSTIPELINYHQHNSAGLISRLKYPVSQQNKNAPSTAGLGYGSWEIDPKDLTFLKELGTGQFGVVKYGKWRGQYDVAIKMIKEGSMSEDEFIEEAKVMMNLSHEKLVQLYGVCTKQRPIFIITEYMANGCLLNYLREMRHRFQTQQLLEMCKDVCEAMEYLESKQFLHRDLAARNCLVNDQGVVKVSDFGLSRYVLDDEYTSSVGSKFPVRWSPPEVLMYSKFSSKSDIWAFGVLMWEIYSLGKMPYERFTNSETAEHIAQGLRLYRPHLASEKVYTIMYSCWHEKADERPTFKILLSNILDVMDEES
T1 sequence (Q06187 whole entry): as above
T4 sequence (Q06187 whole entry C481S): as the sequence (Q06187 whole entry) above, with C481S counted along it
ERBB3, sequence (P21860 20-1342): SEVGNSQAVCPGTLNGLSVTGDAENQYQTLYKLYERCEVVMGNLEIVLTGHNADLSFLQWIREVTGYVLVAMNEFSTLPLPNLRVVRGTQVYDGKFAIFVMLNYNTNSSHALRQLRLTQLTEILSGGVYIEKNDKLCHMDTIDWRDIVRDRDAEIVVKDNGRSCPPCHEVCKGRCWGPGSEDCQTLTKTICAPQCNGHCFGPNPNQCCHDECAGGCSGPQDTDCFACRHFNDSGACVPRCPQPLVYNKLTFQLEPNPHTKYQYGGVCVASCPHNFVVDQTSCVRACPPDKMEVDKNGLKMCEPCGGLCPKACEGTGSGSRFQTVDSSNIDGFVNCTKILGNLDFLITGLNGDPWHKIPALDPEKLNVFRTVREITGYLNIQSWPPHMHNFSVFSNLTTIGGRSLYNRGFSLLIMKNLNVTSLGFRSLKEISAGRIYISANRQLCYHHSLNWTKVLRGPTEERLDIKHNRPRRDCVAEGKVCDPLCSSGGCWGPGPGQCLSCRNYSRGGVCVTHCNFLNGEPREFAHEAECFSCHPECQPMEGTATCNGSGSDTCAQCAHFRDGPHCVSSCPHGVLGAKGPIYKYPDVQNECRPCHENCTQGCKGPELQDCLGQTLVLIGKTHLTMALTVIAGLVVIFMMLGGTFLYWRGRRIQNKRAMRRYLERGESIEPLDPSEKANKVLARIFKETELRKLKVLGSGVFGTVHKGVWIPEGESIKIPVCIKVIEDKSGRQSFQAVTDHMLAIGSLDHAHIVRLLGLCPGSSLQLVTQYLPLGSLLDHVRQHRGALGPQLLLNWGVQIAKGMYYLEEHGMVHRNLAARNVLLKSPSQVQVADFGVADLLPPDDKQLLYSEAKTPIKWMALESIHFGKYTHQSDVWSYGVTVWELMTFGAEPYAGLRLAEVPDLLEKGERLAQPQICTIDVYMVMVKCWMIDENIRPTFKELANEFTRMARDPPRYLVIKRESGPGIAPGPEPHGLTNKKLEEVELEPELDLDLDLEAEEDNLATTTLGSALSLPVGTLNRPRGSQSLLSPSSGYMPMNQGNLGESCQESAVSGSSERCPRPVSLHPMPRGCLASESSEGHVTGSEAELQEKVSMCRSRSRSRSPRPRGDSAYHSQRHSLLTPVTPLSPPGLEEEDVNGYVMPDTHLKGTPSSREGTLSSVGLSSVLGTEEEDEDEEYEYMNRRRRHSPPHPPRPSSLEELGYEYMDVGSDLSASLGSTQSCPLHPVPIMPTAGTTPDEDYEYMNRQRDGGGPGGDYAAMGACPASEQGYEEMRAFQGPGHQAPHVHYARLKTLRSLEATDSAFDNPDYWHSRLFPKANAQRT
JNK3 (MAPK10), sequence (P53779 whole entry): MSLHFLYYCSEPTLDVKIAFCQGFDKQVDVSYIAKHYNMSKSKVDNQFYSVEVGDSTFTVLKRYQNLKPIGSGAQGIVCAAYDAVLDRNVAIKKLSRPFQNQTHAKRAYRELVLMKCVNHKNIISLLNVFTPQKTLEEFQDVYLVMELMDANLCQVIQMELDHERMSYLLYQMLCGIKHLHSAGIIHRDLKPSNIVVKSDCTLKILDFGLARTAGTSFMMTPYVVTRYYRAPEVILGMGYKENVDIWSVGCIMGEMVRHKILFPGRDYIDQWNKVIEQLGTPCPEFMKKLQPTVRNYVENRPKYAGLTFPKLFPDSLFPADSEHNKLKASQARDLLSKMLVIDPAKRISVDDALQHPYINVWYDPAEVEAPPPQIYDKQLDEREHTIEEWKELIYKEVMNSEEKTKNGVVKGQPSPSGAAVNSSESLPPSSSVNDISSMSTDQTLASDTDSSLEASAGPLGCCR
JNK1 (MAPK8), sequence (P45983 whole entry): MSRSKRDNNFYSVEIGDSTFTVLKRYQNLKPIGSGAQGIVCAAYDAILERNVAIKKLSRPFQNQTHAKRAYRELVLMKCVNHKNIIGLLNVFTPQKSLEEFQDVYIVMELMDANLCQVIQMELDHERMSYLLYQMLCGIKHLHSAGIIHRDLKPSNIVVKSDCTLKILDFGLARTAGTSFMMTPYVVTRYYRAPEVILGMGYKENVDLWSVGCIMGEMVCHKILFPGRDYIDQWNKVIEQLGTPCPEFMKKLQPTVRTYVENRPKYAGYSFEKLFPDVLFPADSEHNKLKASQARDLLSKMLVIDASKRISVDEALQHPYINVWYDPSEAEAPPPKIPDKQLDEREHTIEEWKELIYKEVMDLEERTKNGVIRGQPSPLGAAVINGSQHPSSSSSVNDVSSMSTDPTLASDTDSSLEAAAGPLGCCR

BTK binding POC [1]	Kd [3, 12] [nM]	Kd [3, 13] [nM]	fold difference between in-house and published Kd's ([3]; wild-type BTK) [fold]	Kd [3, 14] [nM]	BMX binding POC [4]	selectivity [5]	Kd [6, 15] [nM]	Kd [6, 16] [nM]	Kd [6, 17] [nM]	ERBB3 binding POC [7]	JNK3 (MAPK10) POC [8]	JNK1 (MAPK8) POC [9]	Compound	Kd [2] [nM]	immunomodulatory activities [10]	tissue remodeling activities [10]	inflammation-related activities [10]	hemostasis/angiogenesis-related activities [10]	antiproliferative effects [10]	detectable cytotoxicity [10]	other results
0.1% of control	1.5	1 to 10		1.5	12% of control	moderate (moderate (12–50 off-targets))	> 1000	> 1000	> 1000	97% of control	100% of control	32% of control	C=CC(=O)Nc1cccc(Oc2nc(Nc3ccc(N4CCN(C)CC4)cc3)nc3ccoc23)c1 [Poseltinib]								Kd for BTK C481S ([6]; ATP-independent in vitro binding, 25 °C): did not demonstrate any binding at the concentrations tested
0% of control					10% of control					83% of control	3.9% of control	4.8% of control	C=CC(=O)Nc1cccc(Nc2nc(Nc3ccc(OCCOC)cc3)ncc2F)c1 [Spebrutinib]		↓ sIL-17A, sIL-2, sIL-6	↓ PAI-1, Col-I, Col-IV	↓ sTNFα	none	B cells (370, 120, 41, 14); endothelial cells (370); CASM cells (370); fibroblast cells (370)	none	number of biological effects ([10]; 370 nM): 11; number of effects not in the BT model ([10]; 370 nM): 6; tissue remodeling activities ([10]; listed as spebrutinib): decreased the activity of tissue remodeling biomarkers; antiproliferative effects ([10]; listed as spebrutinib): antiproliferative effects in endothelial (3C), coronary artery smooth muscle (CASM), and fibroblast (HDF3CGF) cells; also recorded: antiproliferative activity in CASM cells

The next lines start with the compound.

Compound	BTK binding POC [1]	Kd [3, 12] [nM]	Kd [3, 13] [nM]	fold difference between in-house and published Kd's ([3]; wild-type BTK) [fold]	Kd [3, 14] [nM]	BMX binding POC [4]	selectivity [5]	Kd [6, 15] [nM]	Kd [6, 16] [nM]	Kd [6, 17] [nM]	ERBB3 binding POC [7]	JNK3 (MAPK10) POC [8]	JNK1 (MAPK8) POC [9]	Kd [2] [nM]	immunomodulatory activities [10]	tissue remodeling activities [10]	inflammation-related activities [10]	hemostasis/angiogenesis-related activities [10]	antiproliferative effects [10]	detectable cytotoxicity [10]	other results
C=CC(=O)N1CCC[C@@H](c2ccc(C(N)=O)c3[nH]ccc23)C1 [Elsubrutinib]	0.1% of control	2.9	1 to 10	1.1	2.9	20% of control	high (high (≤11 off-targets))	460	460	100 to 1000	74% of control	94% of control	96% of control	3.1							
C[C@H]1CN(C2COC2)CCN1c1ccc(Nc2cc(-c3ccnc(N4CCn5c(cc6c5CC(C)(C)C6)C4=O)c3CO)cn(C)c2=O)nc1 [Fenebrutinib]											78% of control	100% of control	100% of control		↓ sIgG, sIL-2, sIL-6	none	↓ sTNFα, IL-1α	↑ TF	B cells (1000, 330, 110, 37)	none	number of biological effects (biomarkers modulated) [10]: 8; number of effects in a non-B cell (non-BT) model [10]: 3; hemostasis/angiogenesis-related activities ([10]; listed as fenebrutinib): increase in the production of Tissue Factor (TF); IC50 [11]: 7.8 nM
O=C(c1ccc(Oc2ccccc2)cc1Cl)c1c[nH]c2ncnc(N[C@@H]3CC[C@@H](CO)OC3)c12 [Nemtabrutinib]	0.6% of control					8.5% of control					0.9% of control	100% of control	39% of control	46							off-target hits ([5]; POC <35): 97
COc1ccc(F)cc1C(=O)NCc1ccc(-c2nn([C@@H](C)C(F)(F)F)c(N)c2C(N)=O)cc1 [Pirtobrutinib]	0% of control	0.81	< 1	1.1	0.81	51% of control	moderate (moderate (12–50 off-targets))	0.89	0.89	< 1	97% of control	100% of control	96% of control	0.9	↓ sIL-17A, sIL-17F, sIL-2, sIL-6	none	↓ sTNFα, IL-1α	none	B cells (1000, 330, 110, 37)	none	number of biological effects (biomarkers modulated) [10]: 7; number of effects in a non-B cell (non-BT) model [10]: 1; fold difference between in-house and published Kd ([6]; BTK C481S): 2.9 fold; IC50 [11]: 4 nM
